Measurements from ChEMBL document CHEMBL1138717, “Synthesis of 8-thiabicyclo[3.2.1]oct-2-enes and their binding affinity for the dopamine and serotonin transporters” (Bioorg Med Chem Lett, 2004).

Assays:
[1] = biological target: Sodium-dependent dopamine transporter (Homo sapiens, UniProt Q01959); experiment: Inhibition of [3H]WIN-35428 binding to human dopamine transporter (hDAT)
[2] = biological target: Sodium-dependent serotonin transporter (Homo sapiens, UniProt P31645); experiment: Inhibition of [3H]citalopram binding to human serotonin transporter (hSERT)
Sequence of Sodium-dependent serotonin transporter (P31645 whole entry): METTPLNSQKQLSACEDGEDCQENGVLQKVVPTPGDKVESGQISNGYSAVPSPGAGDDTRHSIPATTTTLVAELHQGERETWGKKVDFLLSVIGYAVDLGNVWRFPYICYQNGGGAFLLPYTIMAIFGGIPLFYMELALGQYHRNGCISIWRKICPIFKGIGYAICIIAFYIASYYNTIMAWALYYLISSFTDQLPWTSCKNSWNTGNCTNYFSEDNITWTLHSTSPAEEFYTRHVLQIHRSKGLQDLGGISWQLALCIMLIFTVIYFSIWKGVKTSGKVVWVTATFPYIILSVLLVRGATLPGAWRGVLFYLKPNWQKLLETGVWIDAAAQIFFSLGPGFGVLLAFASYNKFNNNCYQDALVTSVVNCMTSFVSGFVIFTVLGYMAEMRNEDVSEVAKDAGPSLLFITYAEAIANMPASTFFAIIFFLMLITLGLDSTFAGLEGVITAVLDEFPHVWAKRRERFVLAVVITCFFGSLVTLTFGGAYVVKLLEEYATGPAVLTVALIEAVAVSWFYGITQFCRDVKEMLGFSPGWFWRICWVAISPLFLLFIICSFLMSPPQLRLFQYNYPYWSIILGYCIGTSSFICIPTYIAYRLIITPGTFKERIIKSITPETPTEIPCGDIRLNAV

[3] = Inhibition of [3H]WIN-35428 binding to dopamine transporter (DAT)

Sequence of Sodium-dependent dopamine transporter (Q01959 whole entry): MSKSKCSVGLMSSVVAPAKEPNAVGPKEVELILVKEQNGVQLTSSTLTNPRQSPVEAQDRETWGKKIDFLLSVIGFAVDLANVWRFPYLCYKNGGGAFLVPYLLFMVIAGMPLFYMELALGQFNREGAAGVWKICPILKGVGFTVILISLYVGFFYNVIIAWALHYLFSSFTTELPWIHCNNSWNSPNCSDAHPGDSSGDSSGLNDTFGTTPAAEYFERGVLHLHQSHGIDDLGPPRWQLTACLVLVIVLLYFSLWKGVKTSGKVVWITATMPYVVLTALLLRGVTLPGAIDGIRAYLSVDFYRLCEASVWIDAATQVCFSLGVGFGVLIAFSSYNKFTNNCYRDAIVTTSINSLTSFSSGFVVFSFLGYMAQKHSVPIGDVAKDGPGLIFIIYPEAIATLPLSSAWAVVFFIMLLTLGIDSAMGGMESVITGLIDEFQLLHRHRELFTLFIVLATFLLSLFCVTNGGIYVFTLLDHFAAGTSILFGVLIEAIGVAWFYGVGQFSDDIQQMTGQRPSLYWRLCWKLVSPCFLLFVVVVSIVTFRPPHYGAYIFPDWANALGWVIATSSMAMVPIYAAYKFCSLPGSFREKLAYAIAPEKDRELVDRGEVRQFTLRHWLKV

Structure (SMILES) | IC50 [1] [µM] | IC50 [2] [µM] | IC50 [3] [µM]
COC(=O)C1=C(c2ccc(Cl)cc2)CC2CCC1O2 (stereo unspecified) | 0.238 | > 60 | 
COC(=O)C1=C(c2ccc3ccccc3c2)CC2CCC1S2 (stereo unspecified) | 0.008 | 1.3 | 
COC(=O)C1=C(c2ccccc2)CC2CCC1O2 (stereo unspecified) | > 10 | > 10 | 
COC(=O)C1=C(c2ccc(I)cc2)CC2CCC1S2 (stereo unspecified) | 0.0067 | 8.7 | 
COC(=O)C1=C(c2ccc(Br)cc2)CC2CCC1O2 (stereo unspecified) | 0.062 | > 30 | 
COC(=O)C1=C(c2ccccc2)CC2CCC1S2 (stereo unspecified) | 0.91 | > 10 | 
COC(=O)C1=C(c2ccc(F)cc2)CC2CCC1S2 (stereo unspecified) | 0.22 | 28 | 
COC(=O)C1=C(c2ccc(Cl)cc2)CC2CCC1S2 (stereo unspecified) | 0.013 | > 10 | 
COC(=O)C1=C(c2ccc(I)cc2)CC2CCC1O2 (stereo unspecified) | 0.068 | 4.8 | 
COC(=O)C1=C(c2ccc(F)cc2)CC2CCC1O2 (stereo unspecified) | 2.73 | > 50 | 
COC(=O)C1=C(c2ccc(Cl)c(Cl)c2)CC2CCC1S2 (stereo unspecified) | 0.0045 | 3.6 | 
COC(=O)[C@H]1[C@@H](OC(=O)c2ccccc2)C[C@@H]2CC[C@H]1N2C [COCAINE] |  |  | 0.1
COC(=O)C1=C(c2ccc(Cl)c(Cl)c2)CC2CCC1O2 (stereo unspecified) | 0.012 |  | 
COC(=O)C1=C(c2ccc(Br)cc2)CC2CCC1S2 (stereo unspecified) | 0.0091 | > 25 | 
